{"source": "patent US20110130369A1", "about": "“USE OF FTS FOR THE TREATMENT OF MYOCARDIAL ISCHEMIA/REPERFUSION INJURY” (RAMOT AT TEL-AVIV UNIVERSITY LTD., priority 2008, published 2011)", "key": {"[1]": {"tested_on": "isolated rat heart", "experiment": "Isolated heart perfusion (Langendorff), 30 min ischemia / 30 min reperfusion, hemodynamic recovery", "settings": "FTS 1 μM in perfusate", "procedure": "FTS was provided by Concordia Pharmaceuticals, Inc. (Ft. Lauderdale, Fla.). […] The powder was dissolved in DMSO and diluted with Krebs-Henseleit bicarbonate buffer solution (KHB) to yield a 1 μM drug solution containing 10% DMSO. Rats were heparinized (500 U/kg) and anesthetized (i.p.) with ether. The hearts were quickly removed, the aorta was cannulated and the heart perfused in retrograde according to Langendorff at a pressure of 96 cmH2O with oxygenated Krebs-Henseleit bicarbonate buffer solution (KHB) containing (mM): 118 NaCl, 2.4 KCl, 1.2 MgSO4, 7×H2O, 2.5 CaCl2, 5 EDTA, 1.2 KH2PO4, 25 NaHCO3, 4 glucose at 37° C. [[…], Offen D, Maulik N, Otani H, Barhum Y, et al., Am J Physiol Heart Circ Physiol 284:H2351-59 (2003)]. The isolated heart was stabilized for 20 minutes at a constant perfusion pressure and then subjected to 30 minutes of ischemia followed by 30 minutes of reperfusion. Ischemia was created by clamping the aortic cannula. During reperfusion, hearts were given KHB (buffer) with FTS or KHB only. The temperature of the heart (measured in the right ventricle) was maintained at 37°±0.2° C. throughout the experiment by a micro-thermocouple connected to a digital thermometer (Webster Laboratories […], Calif.). In all stages of the protocol, the left ventricular developed pressure (LVP), the rate of pressure development and relaxation (±dP/dt) and the heart rate (HR), were continuously recorded by the CODAS data acquisition system (San Diego, Calif.). Rate pressure product (RPP), an index of myocardial workload, was calculated by multiplying LVP by HR. Coronary effluent was collected at one-minute intervals before and after ischemia, at various time points (1, 10 and 30 minutes reperfusion) and analyzed for CK activity (Boehringer Mannheim). Results are expressed as means±standard error of the mean (SE). Values during stabilization period were defined as 100%. A statistical difference between the groups was assessed by analysis of variance (ANOVA) with repeated measurements using the multiple comparison option of Duncan. If differences were established, values were compared using Student's t-test: p<0.05 was considered significant. To determine the protective effects of Ras protein inhibition on cardiac damage derived from I/R injury ex vivo, we first determined the baseline absolute values of the rats and cardiac function prior to ischemia in FTS (1 μM) and control groups. […] Values are expressed as mean±SE. Next, we perfused the isolated rat hearts with FTS (1 μM) in the Langendorff system after 30 minutes of ischemia (FIG. 1). FTS had no effect on the CF recovery in the FTS vs. control group (FIG. 1A) during the 30 minutes of reperfusion."}, "[2]": {"tested_on": "isolated rat heart", "experiment": "Enzymatic leakage of CK and LDH into the coronary effluent of isolated perfused hearts", "settings": "FTS 1 μM, at 1 minute and 30 minutes of reperfusion", "procedure": "(§1) Rats were heparinized (500 U/kg) and anesthetized (i.p.) with ether. The hearts were quickly removed, the aorta was cannulated and the heart perfused in retrograde according to Langendorff at a pressure of 96 cmH2O with oxygenated Krebs-Henseleit bicarbonate buffer solution (KHB) containing (mM): 118 NaCl, 2.4 KCl, 1.2 MgSO4, 7×H2O, 2.5 CaCl2, 5 EDTA, 1.2 KH2PO4, 25 NaHCO3, 4 glucose at 37° C. [[…], Offen D, Maulik N, Otani H, Barhum Y, et al., Am J Physiol Heart Circ Physiol 284:H2351-59 (2003)]. The isolated heart was stabilized for 20 minutes at a constant perfusion pressure and then subjected to 30 minutes of ischemia followed by 30 minutes of reperfusion. Ischemia was created by clamping the aortic cannula. During reperfusion, hearts were given KHB (buffer) with FTS or KHB only. The temperature of the heart (measured in the right ventricle) was maintained at 37°±0.2° C. throughout the experiment by a micro-thermocouple connected to a digital thermometer (Webster Laboratories […], Calif.). In all stages of the protocol, the left ventricular developed pressure (LVP), the rate of pressure development and relaxation (±dP/dt) and the heart rate (HR), were continuously recorded by the CODAS data acquisition system (San Diego, Calif.). Rate pressure product (RPP), an index of myocardial workload, was calculated by multiplying LVP by HR. […]"}, "[3]": {"tested_on": "isolated rat heart", "experiment": "Measurement of irreversible ischemic injury by TTC staining of isolated perfused hearts", "settings": "FTS 1 μM perfusion, 30 minutes ischemia and 30 minutes of reperfusion; control 23.7±4%, p<0.05; mean±SE", "procedure": "as §1"}, "[4]": {"tested_on": "Ras and its downstream effectors", "experiment": "Western immunoblotting / Ras-GTP pull-down of homogenates of isolated perfused hearts (ex vivo)", "design": "species or system rat", "settings": "FTS 1 μM, 30 minutes of reperfusion", "procedure": "Hearts were obtained from FTS- and PBS-treated rats (LAD ligation experiments) and from isolated heart perfusion experiments. The hearts were homogenized in cold homogenization buffer containing protease inhibitors. Protein concentration was determined by the Bradford assay and samples containing 100 μg protein were used for determination of protein levels by Western immunoblotting using: pan-anti-Ras Ab (Ab03; Santa Cruz, Calif.), anti JNK Ab (Cell Signaling; Danvers, Mass.), anti p-JNK Ab (Cell Signaling), anti P38 Ab (Cell Signaling), anti p-P38 Ab (Cell Signaling), anti Mst1 Ab (Cell Signaling), and anti p-Mst1 Ab (Cell Signaling). Enhanced chemiluminescence (ECL) and densitometric analysis were performed as detailed previously [[…], Weisz […], Paz A, Marciano D, Egozi Y, et al., Biochemistry 37(5):1306-14 (1998)1. The hearts were prepared as described above. Samples containing 0.5 mg protein used for determination of levels of active GTP-bound Ras by the glutathione S-transferase-RBD pull-down assay followed by Western immunoblotting with pan-anti-Ras Ab as detailed previously [Jansen […], Mayer […], et al., Proc Natl Acad Sci U.S.A. 96(24):14019-24 (1999)]. To examine the effect of FTS on Ras signaling on its prominent downstream effectors, Western immunoblotting using homogenates of the isolated perfused hearts was performed. Quantitative analysis of the immunoblots disclosed a reduction in levels of active Ras (Ras-GTP) and p-Jnk in hearts of the FTS group (p<0.05) at 30 minutes of reperfusion."}, "[5]": {"tested_on": "Ras and its downstream effectors", "experiment": "Western immunoblotting / Ras-GTP pull-down of hearts from LAD ligation rats (in vivo)", "design": "species or system rat", "settings": "Protocol A, 5 mg/kg"}, "[6]": {"settings": "human, in vivo; cited from earlier work"}, "[7]": {"tested_on": "Male Lewis rats", "experiment": "LAD artery ligation I/R model, echocardiography at day 14", "settings": "5 mg/kg i.p.", "description": "(§2) At the age of 12 weeks, rats were anesthetized (mixture of 8 mg/100 g ketamine, 5 mg/100 g xylazine), intubated, and ventilated with a Harvard Rodent Ventilator Model 383 (respiratory rate: 50/min, respiratory volume: 2.5 mL). A rectal thermocouple was used to continuously monitor body temperature, which was maintained at 37° C. using a heating pad. A left thoracotomy in the third intercostal space was performed to expose the heart. The location of the left descending coronary artery was identified and then occluded with a 6-0 silk suture. Occlusion was confirmed by monitoring the pallor of the region at risk, and an electrocardiogram was used to observe changes such as widening of QRS and ST-T segment elevation. After 30 minutes, the occlusion was removed, the thorax was closed, and rats were returned to their cages at the local vivarium.\nFTS was stored in chloroform, which was evaporated under a stream of nitrogen immediately before use. The powder was dissolved in absolute ethanol and diluted to the desired concentration in sterile PBS made basic with NaOH. Carrier solution (1000 μl) containing 1.35 mg of FTS (5 mg/kg) was injected intraperitoneally (i.p.) into each rat. Control solution was prepared at the same time starting with PBS and absolute ethanol.\nLAD ligation was performed in two groups of rats. Group 1 received 5 mg/kg FTS and group 2 received PBS according to two protocols: (A) FTS or PBS was administered 7 days on a daily basis before LAD ligation, locally during occlusion opening (0.5 μM/100 μl), and continued for 14 days, every other day [prophylactic regimen] (B) FTS or PBS was administered 14 days after LAD ligation every other day [treatment regimen].\nTo examine the effect of systemic FTS treatment on the heart, in vivo experiments were conducted according two protocols."}, "[8]": {"tested_on": "Male Lewis rats", "experiment": "LAD artery ligation I/R model, histopathology (H&E and Masson Trichrome), area of irreversible damage", "settings": "5 mg/kg i.p.", "description": "as §2\nFTS was stored in chloroform, which was evaporated under a stream of nitrogen immediately before use. The powder was dissolved in absolute ethanol and diluted to the desired concentration in sterile PBS made basic with NaOH. […]\nHearts were removed and fixed in 4% formalin, then embedded in paraffin. […] Slides were then assessed in a blinded fashion by a pathologist using light microscopy and scored for the percentage of LVP involvement and collagen deposition. Scar area was evaluated using data from both H&E and Masson staining. […]"}, "[9]": {"settings": "reperfusion after 30 minutes of ischemia, p<0.05"}, "[10]": {"settings": "Protocol A (prophylactic regimen), p<0.05"}}}
{"molecule": "CC(C)=CCC/C(C)=C/CC/C(C)=C/CSc1ccccc1C(=O)O", "note": "[FTS, S-farnesylthiosalicylic acid]", "values": [{"measurement": "CF (coronary flow) recovery vs. control", "setting": "[1]; 30 minutes of reperfusion after 30 minutes of ischemia", "value": "no effect"}, {"measurement": "recovery of HR vs. control", "setting": "[1]; reperfusion after 30 minutes of ischemia", "value": "no significant difference"}, {"measurement": "LVP recovery vs. control", "setting": "[1]; [9]", "value": "significantly better"}, {"measurement": "±dP/dt recovery vs. control", "setting": "[1]; [9]", "value": "significantly better"}, {"measurement": "CK release to the coronary effluent vs. control", "setting": "[2]", "value": "lower in the FTS group compared with control group, but did not reach statistical significance"}, {"measurement": "LDH release to the coronary effluent vs. control", "setting": "[2]", "value": "lower in the FTS group compared with control group, but did not reach statistical significance"}, {"measurement": "regions of irreversible ischemic injury (TTC-negative area, percentage of the entire area of the section)", "setting": "[3]", "value": "12.7±2", "unit": "%"}, {"measurement": "Jnk levels vs. control", "setting": "[4]", "value": "No differences"}, {"measurement": "Mst1 levels vs. control", "setting": "[4]", "value": "No differences"}, {"measurement": "P38 levels vs. control", "setting": "[4]", "value": "No differences"}, {"measurement": "p-Mst1 levels vs. control", "setting": "[4]", "value": "No differences"}, {"measurement": "p-P38 levels vs. control", "setting": "[4]", "value": "No differences"}, {"measurement": "total Ras levels vs. control", "setting": "[4]", "value": "No differences"}, {"measurement": "levels of active Ras (Ras-GTP) vs. control", "setting": "[4]; p<0.05", "value": "reduction"}, {"measurement": "levels of p-Jnk vs. control", "setting": "[4]; p<0.05", "value": "reduction"}, {"measurement": "levels of Jnk vs. control", "setting": "[5]", "value": "did not differ"}, {"measurement": "levels of Mst vs. control", "setting": "[5]", "value": "did not differ"}, {"measurement": "levels of P38 vs. control", "setting": "[5]", "value": "did not differ"}, {"measurement": "levels of p-Jnk vs. control", "setting": "[5]", "value": "did not differ"}, {"measurement": "levels of p-P38 vs. control", "setting": "[5]", "value": "did not differ"}, {"measurement": "levels of active Ras (Ras-GTP) vs. control", "setting": "[5]; p<0.05", "value": "reduction"}, {"measurement": "levels of p-Mst1 vs. control", "setting": "[5]; p<0.05", "value": "reduction"}, {"measurement": "levels of total Ras vs. control", "setting": "[5]; p<0.05", "value": "reduction"}, {"measurement": "tolerability / dose-limiting toxicities", "setting": "[6]", "value": "well-tolerated compound without dose-limiting toxicities"}, {"measurement": "hemodynamic parameters of cardiac function vs. control I/R", "setting": "[7]; Protocol A (prophylactic regimen)", "value": "significant improvement in most hemodynamic parameters"}, {"measurement": "left ventricular end-diastolic area (LVEDA) vs. control I/R", "setting": "[7]; [10]", "value": "significantly better"}, {"measurement": "left ventricular end-systolic area (LVESA) vs. control I/R", "setting": "[7]; [10]", "value": "significantly better"}, {"measurement": "septum diameter", "setting": "[7]; Protocol A (prophylactic regimen), control I/R 0.1±0.01, p<0.05, mean±SE", "value": "0.14±0.01", "unit": "cm"}, {"measurement": "fractional shortening of area", "setting": "[7]; Protocol A (prophylactic regimen), control I/R 38±4%, p<0.05, mean±SE", "value": "55±6", "unit": "%"}, {"measurement": "cardiac hemodynamic function vs. control I/R", "setting": "[7]; Protocol B (treatment regimen, 14 days post-LAD ligation)", "value": "no improvement"}, {"measurement": "area of irreversible damage (percentage of LV wall)", "setting": "[8]; Protocol A (prophylactic regimen), control I/R 36±7%, mean±SE", "value": "17.25±2.5", "unit": "%"}, {"measurement": "area of irreversible damage vs. control I/R", "setting": "[8]; Protocol B (treatment regimen)", "value": "did not show a significant difference"}]}
